Laboratory results reported in patent publication US9833431B2, “Pharmaceutical combinations for the treatment of cancer” (Pitney Pharmaceuticals Pty Limited, priority 2013, dated 2017).
“Also recorded” adds a separate entry of the source. Like-named read-outs stand apart in the source and are kept apart here.

Experiments:
[1] = tested on: OVCAR-3 and A2780; assay type: cell-based, human; conditions: Example 2; cell line not given
[2] = tested on: OVCAR-3; experiment: SRB cytotoxicity / proliferation assay, OVCAR-3 cells; conditions: for Interaction of the drug with MPL (synergy), in words: OVCAR-3 cells, concentrations as stated in the figure
Experimental: (§2) Cells were seeded in 96-well plates (2,000-3,000 cells/well) and culture overnight prior to treatment with MPL. Control cultures were treated with ethanol alone.
(§3) Cytotoxicity was assessed using the sulforhodamine B (SRB) assay and reported as half maximal inhibitory concentration (IC50; Table 3). Cells were seeded in 96-well plates (2,000-3,000 cells/well), treated with the indicated compound(s) for 72 h, fixed, washed and stained with 100 μl of 0.4% (w/v) SRB dissolved in 1% acetic acid. Unbound dye was removed by five washes with 1% acetic acid before air-drying.
(§4) In order to evaluate the effect of MPL on the in vitro efficacy of an established drug was evaluated using cell viability and cell proliferation assays. Cell viability was conducted according to standard Trypan Blue method. Cell proliferation was assessed using the sulforhodamine B (SRB) assay. For viability experiments, cells were seeded in 6 well plates, whereas for proliferation assays cells were grown in 96 well plates. Following over-night attachment, cells were treated with the intended drug at various concentrations either alone or in combination with monepantel (MPL) for 72 h. Parallel to this, cells treated with MPL alone were also deployed for comparative purposes. Following incubation for 72 h in a standard cell culture incubator, effect of mono and combined drug treatments on cell viability and/or cell proliferation was assessed through using Trypan Blue or SRB assays respectively.
(§5) For viability assay, at the end of treatment period, cells were washed with PBS, trypsinized and counted using Trypan blue and hemocytometer. For the SRB assay cells were fixed, washed and stained with 100 μl of 0.4% (w/v) SRB dissolved in 1% acetic acid. Unbound dye was removed by five washes with 1% acetic acid before air drying. […] Monepantel (gift by Novartis, Basel, Switzerland) was dissolved in 100% ethanol and then diluted with the cell culture media.
(§6) MPL (5 μM) and combination drugs were applied for 72 h unless indicated.

[3] = tested on: A2780; experiment: SRB cytotoxicity / proliferation assay, A2780 cells; conditions: for Interaction of the drug with MPL (synergy), in words: 72 h
Experimental: as §2
(§7) Cells were seeded in 96-well plates (2,000-3,000 cells/well), treated with the indicated compound(s) for 72 h, fixed, washed and stained with 100 μl of 0.4% (w/v) SRB dissolved in 1% acetic acid. Unbound dye was removed by five washes with 1% acetic acid before air-drying.
Cell viability was conducted according to standard Trypan Blue method. Cell proliferation was assessed using the sulforhodamine B (SRB) assay. For viability experiments, cells were seeded in 6 well plates, whereas for proliferation assays cells were grown in 96 well plates. Following over-night attachment, cells were treated with the intended drug at various concentrations either alone or in combination with monepantel (MPL) for 72 h. Parallel to this, cells treated with MPL alone were also deployed for comparative purposes. Following incubation for 72 h in a standard cell culture incubator, effect of mono and combined drug treatments on cell viability and/or cell proliferation was assessed through using Trypan Blue or SRB assays respectively.
as §5

[4] = tested on: Hep3B; experiment: SRB cytotoxicity assay, Hep3B cells; assay type: cell-based, human; conditions: Hep3B cells; MPL at 5 μM; 48 h; FIG. 24
Experimental: (§1) All cell lines described herein were purchased from ATCC. […] Control cultures were treated with ethanol alone.

[5] = tested on: LN-18; experiment: SRB cytotoxicity assay, LN-18 cells; assay type: cell-based, human; conditions: 72 h; for Interaction of the drug with MPL (synergy), in words: LN18 cells, FIG. 21
Experimental: as §1

[6] = tested on: U87; experiment: SRB cytotoxicity assay, U87 cells; assay type: cell-based, human; conditions: U87 cells; 72 h; FIG. 21
Experimental: as §1

[7] = tested on: PET; experiment: SRB cytotoxicity assay, PET cells; assay type: cell-based, human; conditions: PET mesothelioma cells; 72 h; FIG. 25
Experimental: as §1

[8] = tested on: REN; experiment: SRB cytotoxicity assay, REN cells; assay type: cell-based, human; conditions: REN mesothelioma cells; 72 h; FIG. 25
Experimental: as §1

[9] = tested on: YOU; experiment: SRB cytotoxicity assay, YOU cells; assay type: cell-based, human; conditions: YOU mesothelioma cells; 72 h; FIG. 25
Experimental: as §1

[10] = tested on: AsPC1; experiment: SRB cytotoxicity assay, AsPC1 cells; assay type: cell-based, human; conditions: AsPC-1 cells; 72 h; FIG. 23
Experimental: as §1

[11] = tested on: C170; experiment: SRB cytotoxicity assay, C170 cells; assay type: cell-based; conditions: C170 cells; MPL 5 μM; 5-FU 20 μM, gemcitabine 0.5 μM, oxaliplatin 1 μM; 72 h; FIG. 27
Experimental: as §1

[12] = tested on: HT-29; experiment: cells; assay type: cell-based; conditions: 72 h
Experimental: as §1

[13] = tested on: CFPAC-1; experiment: SRB cytotoxicity assay, CFPAC-1 cells; conditions: CFPAC-1 cells, 72 h
Experimental: as §2, §3, §6

[14] = tested on: HOSE; experiment: SRB cytotoxicity assay, HOSE non-malignant control cells; conditions: for Interaction of the drug with MPL (synergy), in words: HOSE non-malignant control cells, concentrations as stated at the place or in the figure
Experimental: (§8) All cell lines described herein were purchased from ATCC. Cells were seeded in 96-well plates (2,000-3,000 cells/well) and culture overnight prior to treatment with MPL. Control cultures were treated with ethanol alone.
as §7
(§9) Corresponding cytotoxicity of the major metabolite MPL-SO2 has also been tested where indicated. […] HUVEC, human fetal astrocytes and HOSE cells are non-transformed, non-immortalized and non-malignant, freshly isolated/low passage number cell populations, from apparently healthy non-diseased tissue. These healthy cell populations were included in the experimental series as controls for non-specific toxicity. Both MPL and MPL-SO2 were suspended in ethanol and applied in final concentrations of 0.5 to 1% ethanol in the respective culture media.
as §4
(§10) For viability assay, at the end of treatment period, cells were washed with PBS, trypsinized and counted using Trypan blue and hemocytometer. For the SRB assay cells were fixed, washed and stained with 100 μl of 0.4% (w/v) SRB dissolved in 1% acetic acid. Unbound dye was removed by five washes with 1% acetic acid before air drying. […] Monepantel (gift by Novartis, Basel, Switzerland) was dissolved in 100% ethanol and then diluted with the cell culture media. Other agents employed in the study were purchased either from Sigma Australia or Sapphire Australia, prepared and preserved for cell culture use according to supplier instructions.
as §6

[15] = tested on: MCF-7; experiment: SRB cytotoxicity assay, MCF-7 cells; assay type: cell-based; conditions: Homo sapiens, MCF7, 72 h, MCF-7, malignant, breast
Experimental: as §1

[16] = tested on: 1A9; experiment: SRB cytotoxicity assay, 1A9 cells; assay type: cell-based; conditions: Homo sapiens, 1A9, malignant, ovarian, 72 h
Experimental: as §1

[17] = tested on: IGROV-1; experiment: SRB cytotoxicity assay, IGROV-1 cells; assay type: cell-based; conditions: Homo sapiens, IGROV-1, malignant, ovarian, 72 h
Experimental: as §1

[18] = tested on: SKOV-3; experiment: SRB cytotoxicity assay, SKOV-3 cells; assay type: cell-based; conditions: Homo sapiens, SK-OV-3, SKOV-3, malignant, ovarian, 72 h
Experimental: as §1

[19] = tested on: HaCat; experiment: SRB cytotoxicity assay, HaCat cells; assay type: cell-based; conditions: Homo sapiens, immortalised, epidermal, 72 h
Experimental: as §1

[20] = tested on: CHO; experiment: SRB cytotoxicity assay, CHO cells; assay type: cell-based; conditions: Cricetulus griseus, immortalised, ovarian, 72 h
Experimental: as §1

[21] = tested on: HUVEC; experiment: SRB cytotoxicity assay, HUVEC; assay type: cell-based; conditions: Homo sapiens, non-malignant, endothelial, 72 h
Experimental: as §1

[22] = tested on: all cell lines and cells tested; experiment: SRB cytotoxicity assay, all cells of Table 3; assay type: cell-based
Experimental: as §1

[23] = tested on: HOSE
Experimental: as §8, §7, §9, §4, §10, §6

[24] = A2780 cells, concentrations as stated at the place or in the figure

NC(Cc1c[nH]cn1)C(=O)O (racemic) [DL-histidine]
effect of combination with MPL, in words [1]: no effect | Interaction of the drug with MPL (synergy), in words ([2]; 72 h): no synergistic effect

CCCSc1ccc2nc(NC(=O)OC)[nH]c2c1 [A8Z, albendazole]
Interaction of the drug with MPL (synergy), in words [3, 24]: good synergistic effect

CN/C(=N/CCSCc1nc[nH]c1C)NC#N [Cimetidine]
Interaction of the drug with MPL (synergy), in words [3, 24]: significant combination synergistic effect

N.N.[Cl][Pt][Cl] [Cisplatin, cis-diamminedichloroplatinum(II)]
Interaction of the drug with MPL (synergy), in words [4]: No synergy was observed | Interaction of the drug with MPL (synergy), in words [3, 24]: some increase of effect

COc1cc2c(c(OC)c1OC)-c1ccc(OC)c(=O)cc1[C@@H](NC(C)=O)CC2 [Colchicine]
Interaction of the drug with MPL (synergy), in words [3, 24]: cytotoxic effect | Interaction of the drug with MPL (synergy), in words ([3]; A2780 cells, concentrations as stated at the place or in the figure, listed as colchicine): synergistic effect; also recorded: synergistic cytotoxicity

COc1cccc2c1C(=O)c1c(O)c3c(c(O)c1C2=O)C[C@@](O)(C(=O)CO)C[C@@H]3O[C@H]1C[C@H](N)[C@H](O)[C@H](C)O1 [Doxorubicin]
Interaction of the drug with MPL (synergy), in words [5]: synergistic interaction; also recorded: synergistic inhibition | Interaction of the drug with MPL (synergy), in words [6]: synergistic interaction; also recorded: synergistic inhibition | Interaction of the drug with MPL (synergy), in words [4]: synergistic cytotoxicity; also recorded: synergistically inhibits; also recorded: synergistically cytotoxic | Interaction of the drug with MPL (synergy), in words [7]: synergistic interaction; also recorded: synergistic inhibition | Interaction of the drug with MPL (synergy), in words [8]: synergistic interaction; also recorded: synergistic inhibition | Interaction of the drug with MPL (synergy), in words [9]: synergistic interaction; also recorded: synergistic inhibition | Interaction of the drug with MPL (synergy), in words [10]: do not display a synergistic interaction | Interaction of the drug with MPL (synergy), in words ([3]; A2780 cells, concentrations as stated in the figure): synergy; also recorded: synergistic interaction; also recorded: synergistic inhibition | doxorubicin concentration in the absence of MPL equivalent to doxorubicin (10 nM) in the presence of MPL (5 μM) ([3]; A2780 cells, FIG. 1): 1000 nM | IC50 ([3]; read-out: IC50 value, cell proliferation, A2780 cells, with addition of 5 μM MPL, approximate values, FIG. 1): ~0.001 µM | IC50 ([3]; read-out: IC50 value, cell proliferation, A2780 cells, without MPL, approximate values, FIG. 1): ~0.5 µM | Interaction of the drug with MPL (synergy), in words ([2]; 72 h): synergistic interaction; also recorded: synergistic inhibition; also recorded: synergistic cytotoxic effect

O=c1[nH]cc(F)c(=O)[nH]1 [Fluorouracil]
Interaction of the drug(s) with MPL (synergy), in words [11]: synergistic cytotoxicity | effect of combination with MPL, in words [1]: significant increase in the effect

Nc1ccn([C@@H]2O[C@H](CO)[C@@H](O)C2(F)F)c(=O)n1 [Gemcitabine]
Interaction of the drug(s) with MPL (synergy), in words [11]: synergistic cytotoxicity | Interaction of the drug(s) with MPL (synergy), in words ([12]; HT29 cells, MPL 5 μM, 5-FU 20 μM, gemcitabine 0.5 μM, oxaliplatin 1 μM, FIG. 27): synergistic cytotoxicity | Interaction of the drug with MPL (synergy), in words [5]: synergistic interaction; also recorded: synergistically inhibits | Interaction of the drug with MPL (synergy), in words [4]: No synergy was observed | Interaction of the drug with MPL (synergy), in words [7]: do not display a synergistic interaction | Interaction of the drug with MPL (synergy), in words [8]: do not display a synergistic interaction | Interaction of the drug with MPL (synergy), in words [9]: do not display a synergistic interaction | Interaction of the drug with MPL (synergy), in words [10]: strong synergistic interaction; also recorded: synergistically inhibits | effect of combination with MPL, in words [1]: notable increase in efficacy | Interaction of the drug with MPL (synergy), in words ([13]; 5 μM MPL, FIG. 23): synergistic interaction; also recorded: synergistically exerted a cytotoxic effect | Interaction of the drug(s) with MPL (synergy), in words ([13]; 10 μM MPL, data not shown): synergistically exerted a cytotoxic effect | Interaction of the drug with MPL (synergy), in words [3, 24]: strong synergistic interaction | Interaction of the drug with MPL (synergy), in words ([3]; A2780 cells, concentrations as stated at the place or in the figure, listed as gemcitabine): synergistically inhibits | Interaction of the drug with MPL (synergy), in words ([14]; 72 h): do not display the same synergistic interaction | Interaction of the drug with MPL (synergy), in words ([14]; 72 h, listed as gemcitabine): do not display a synergistic interaction; also recorded: without displaying a synergistic interaction

N[C@@H](Cc1c[nH]cn1)C(=O)O [L-histidine]
effect of combination with MPL, in words [1]: no effect | Interaction of the drug with MPL (synergy), in words ([2]; 72 h): no synergistic effect

c1ccc([C@H]2CN3CCSC3=N2)cc1 [Levamisole]
Interaction of the drug with MPL (synergy), in words [3, 24]: did not display a synergistic effect | Interaction of the drug with MPL (synergy), in words ([3]; A2780 cells, concentrations as stated at the place or in the figure, listed as levamisole): does not display a synergistic cytotoxicity | synergistic cytotoxic effect with MPL, predicted ([3]; A2780 cells, levamisole at higher concentrations): may exert a synergistic cytotoxic effect | Synergistic cytotoxicity between MPL and combined drug ([2]; OVCAR-3, 5 μM MPL + drug, 72 h, Table 7): ✓^3 | Interaction of the drug with MPL (synergy), in words ([2]; 72 h): significant synergistic effect; also recorded: does so against OVCAR-3 cells

C[C@](C#N)(COc1cc(C#N)ccc1C(F)(F)F)NC(=O)c1ccc(S(=O)(=O)C(F)(F)F)cc1 [MPL-SO2, monepantel sulphone]
IC50 [15]: 8 ± 0.7 µM | IC50 ([12]; Homo sapiens, HT-29, malignant, colorectal, SRB): 2.8 ± 0.7 µM | IC50 ([5]; Homo sapiens, LN-18, malignant, glial, SRB): 6.6 ± 0.7 µM | IC50 [16]: 3.4 ± 0.1 µM | IC50 [17]: 4.4 ± 1.5 µM | IC50 [18]: 26 µM | IC50 [19]: 42.7 ± 8 µM | IC50 [20]: 73.7 ± 6.9 µM | IC50 [21]: 47 µM | cytotoxicity compared with MPL [22]: generally comparable to the parent compound | IC50 ([3]; Homo sapiens, A2780, 72 h): 4.2 ± 2.1 µM | IC50 ([2]; Homo sapiens, OVCAR-3, 72 h): 5.5 ± 1.3 µM

CC#C[C@]1(O)CC[C@H]2[C@@H]3CCC4=CC(=O)CCC4=C3[C@@H](c3ccc(N(C)C)cc3)C[C@@]21C [Mifepristone]
Interaction of the drug with MPL (synergy), in words [3, 24]: significant combination synergistic effect

CN(C)c1ccc(O)c2c1C[C@H]1C[C@H]3[C@H](N(C)C)C(O)=C(C(N)=O)C(=O)[C@@]3(O)C(O)=C1C2=O [Mino, minocycline]
B) Double treatment with MPL: synergistic cytotoxicity, one symbol per experiment ([2]; OVCAR-3, MPL 5.0 μM + Mino (5 μM), 72 h): ✓✓✓ | B) Double treatment with MPL: synergistic cytotoxicity, one symbol per experiment ([2]; OVCAR-3, MPL 5.0 μM + Mino (10 μM), 72 h): ✓✓✓ | B) Double treatment with MPL: synergistic cytotoxicity, one symbol per experiment ([14]; HOSE, MPL 5.0 μM + Mino (5 μM), 72 h): ✓✓✓

O=C1[O][Pt]2([NH][C@@H]3CCCC[C@H]3[NH]2)[O]C1=O [Oxaliplatin]
Interaction of the drug with MPL (synergy / additive cytotoxicity), in words [23]: does not exert any additive cytotoxic effect | Interaction of the drug with MPL (synergy / additive cytotoxicity), in words ([14]; HOSE cells, MPL at 5 μM, 48 h, FIG. 24): does not display a synergistic cytotoxicity

CC/C(=C(\c1ccccc1)c1ccc(OCCN(C)C)cc1)c1ccccc1 [Tamoxifen]
effect of combination with MPL, in words [1]: significant increase in the effect

Cn1c(=O)c2c(ncn2C)n(C)c1=O [caffeine]
Interaction of the drug with MPL (synergy), in words ([2]; 72 h): no synergistic effect

NCC(=O)O [glycine]
effect of combination with MPL, in words [1]: no effect | Interaction of the drug with MPL (synergy), in words ([2]; 72 h): no synergistic effect

Ivermectin
effect of the drug alone ([3]; A2780 (ovarian)): inhibited | Interaction of the drug with MPL (synergy), in words [3, 24]: synergistic effect
